Data taken from patent US11466054B2, “Inhibitors of metastasis” (BIOMARCK PHARMACEUTICALS LTD., priority 2013, dated 2022).
Where no end group is shown, it is not given here.

Legend:
[1] = system: Human adenocarcinoma cells (PC-9); test: Orthotopic lung cancer implantation model in SCID mice, i.p. versus inhalation (Example 4); format: in vivo
Experimental: In this study, inhibition of lung cancer metastasis by peptide BIO-11006 in an orthotopic lung cancer implantation model in SCID mice assessed. Human adenocarcinoma cells (PC-9) (1-2×10^5) were suspended in 40 μL of PBS, pH 7.4 containing 0.5 mg/mL of Matrigel™ (BD Bioscience) and injected into the left lung of SCID mice (n=3) using a syringe with 29 gauge needle. BIO-11006 (100 μM, in PBS) was administered either (a) by i.p. injection (50 μL) once daily for 22 days starting at 3 days post cancer cell inoculation or (b) by aerosol inhalation using a Nebulizer Delivery System (Aeroneb Lab) over 30 min once daily for 22 days starting at 3 days post cancer cell inoculation. […] Both i.p. and aerosol administration of BIO-11006 reduced cancer cell metastasis by more than 50% in the right lung and heart, and 100% in the diaphragm. Thus, both routes of administration had significant inhibitory effects on cancer cell metastasis.

A549 = test: Transwell migration assay, A549 cells; format: cell-based, human; conditions: 12 hr
Experimental: The human adenocarcinoma-derived alveolar epithelial cell line A549 (an invasive cell line) was obtained from the American Type Culture Collection (ATCC) and was cultured in RPMI-1640 supplemented with 10% fetal bovine serum and 100 U/ml penicillin/streptomycin, in 75 cm^2 tissue culture flasks. The cells reached confluence by the third day of culture at 37° C. in an atmosphere of 95% air and 5% CO2 and were maintained by serial passage.
The test peptides (MANS, RNS, BIO-11006, BIO-11000, BIO-11002, BIO-91200, and BIO-10901) were dissolved in PBS at a pH of 7.0; slow vortex mixing for about two hours aided solubility.
Transwell plates (24-well, […]; Costar, Cambridge, Mass., USA) were used to conduct the migration assay. The lower chambers of the transwell plates were filled with 600 μl of basal medium containing 10% FBS. The cells (1×10^5) were suspended in 100 μl of basal medium containing 1% BSA and added to the upper chamber, and the plates incubated at 37° C. with 5% CO2 for 12 hr in PBS (control), or the indicated test peptides at 10, 25 or 50 μM. The cells on the upper surface of the filters were removed using cotton swabs. The cells that migrated to the lower surface of the filters were washed, fixed, and stained with hematoxylin and counted under the microscope. The percent change in migration is determined by counting the number of cells that migrated to the lower surface of the filters. At least four separate microscopic fields are counted per membrane, with a total of three replicate experiments at each concentration. The statistics software “Prizm” was used for data analysis.

[2] = system: Human adenocarcinoma cells (PC-9); test: Orthotopic lung cancer implantation model in SCID mice, aerosol from day 4 or day 15 (Example 5); format: in vivo; conditions: for total number of tumor nodules found in all tissues: FIG. 14
Experimental: In this study, inhibition of lung cancer metastasis by BIO-11006 was investigated in an orthotopic lung cancer implantation model in SCID mice. Human adenocarcinoma cells (PC-9) (1-2×10^5) were suspended in 40 μL of PBS containing 0.5 mg/mL of Matrigel™ (BD Bioscience) and injected into the left lung of SCID mice (n=3) using a 29 gauge needle. BIO-11006 was administered starting either 4 days or 15 days post cancer cell inoculation by aerosol using 100 μM solution in PBS by Nebulizer Delivery System (Aeroneb Lab) over 30 min once daily for 25 days post cancer cell inoculation. At end of the experiment, the mice were sacrificed and lungs, heart, and diaphragm tissues collected and number of tumor nodules in each tissue measured. The results of this experiment are presented graphically in FIGS. 13 and 14. […] When the treatment was initiated at 15 days post inoculation of cancer cells, the inhibition of tumor metastasis was about 50% in the lungs, heart, and diaphragm. FIG. 14 depicts the total number of tumor nodules found in all tissues when peptide treatment was started at 15 days post cancer cell inoculation or 4 days post cancer cell inoculation.

PC-9 cells = test: Orthotopic lung injection xenograph model, PC-9 cells in nude mice; format: in vivo; conditions: 50 nmoles i.p. once every three days, 25 days
Experimental: The metastatic activity of cancer cells in vivo after treatment with MANS peptide or BIO-11006 was assessed in the orthotopic lung injection xenograph model. After pretreatment with either PBS, or PBS+MANS, BIO-11006 (SEQ ID NO: 106), or the control RNS peptide at 100 μM for 4 hours, PC-9 cells were injected into the left lobe of the lung of nude mice. Seven days later, these mice were given systemic treatment with either PBS only (Con), RNS (additional control peptide), MANS or BIO-11006 at 50 nmoles per intraperitoneal injection once every three days. At 25 days (6 injections) post-seeding of these tumor cells, mice were sacrificed and the number of metastasized tumor nodules in the contralateral lung and other organs was counted.

[3] = aerosol inhalation 100 μM over 30 min once daily for 22 days from 3 days post inoculation
[4] = i.p. injection 50 μL of 100 μM once daily for 22 days from 3 days post inoculation
[5] = aerosol 100 μM once daily, started 4 days post inoculation, FIG. 13

Substance: N-acetyl-GAQFSKTAAK (Ac-GAQFSKTAAK; listed as Homo sapiens) [BIO-11006]
- reduction of cancer cell metastasis in the diaphragm [1, 3]: 100%
- reduction of cancer cell metastasis in the right lung and heart [1, 3]: more than 50%
- reduction of cancer cell metastasis in the diaphragm [1, 4]: 100%
- reduction of cancer cell metastasis in the right lung and heart [1, 4]: more than 50%
- cell numbers in comparison to control, RNS peptide and MANS peptide (A549; A549, 25 μm, FIG. 11): significantly reduced cell numbers
- migration index numbers relative to control and to RNS peptide (A549; A549, 50 μm): increased migration index numbers
- migrated cell numbers relative to control and to RNS peptide (A549; A549, 50 μm, FIG. 11): decreased migrated cell numbers
- inhibition of tumor metastasis in the lungs, heart, and diaphragm ([2]; aerosol 100 μM once daily, initiated 15 days post inoculation, FIG. 13): about 50%
- inhibition of tumor metastasis in the left lung, heart, and diaphragm [2, 5]: 60-90%
- inhibition of tumor metastasis in the right lung [2, 5]: 100%
- total number of tumor nodules found in all tissues ([2]; treatment starting at 4 days post cancer cell inoculation): even further reduced tumor nodules
- total number of tumor nodules found in all tissues ([2]; treatment starting at 15 days post cancer cell inoculation): reduced tumor nodules
- Metastases (affected mice/total mice) Diaphragm (PC-9 cells): 0/2
- Metastases (affected mice/total mice) Heart (PC-9 cells): 0/2
- Metastases (affected mice/total mice) Intestines (PC-9 cells): 0/2
- Metastases (affected mice/total mice) Spleen (PC-9 cells): 0/2
- No. of Metastatic Lung Tumors Mean ± SE (L't) (PC-9 cells; left lung): 0; 0
- No. of Metastatic Lung Tumors Mean ± SE (R't) (PC-9 cells; right lung): 0; 0
- Tumor Size (mm) Mean ± SE (PC-9 cells; tumor at site of injection, cells pretreated 100 μM 4 hours): 1.61 ± 0.37 mm
